According to patent US6040307A, “Methods ad compositions of (-) ketoconazole for treating fungal yeast and dermatophyte infections” (priority 1999, dated 2000):
Entries after “also recorded” stand apart in the source; their conditions may differ.

What was measured:
[1] = test system: microsporum canis, trichophyton mentagrophytes, candida tropicalis, candida albicans, and other fungi and bacteria; conditions: cited from earlier work
[2] = in vivo, po; cited from earlier work
liver = conditions: cited from earlier work
[3] = test system: isolated guinea pig hearts; experiment: QT duration and action potential duration in isolated guinea pig hearts, perfused with oxygenated Tyrode's solution
Protocol: The hearts were perfused with an oxygenated Tyrode's solution, containing 0.0; 1.0; 5.0 or 10.0 μM of ketoconazole. QT duration and action potential duration (APD) were measured from cardiac electrodes. APD was measured at 50% (APD-50) and 90% (APD-90). In the table, "N" is the number of hearts, and QT and APD are measured in milliseconds.

patients = conditions: human, in vivo; cited from earlier work
synthesis of ergosterol = conditions: fungal cell membranes; cited from earlier work
delayed rectifier (Ik) = conditions: cited from earlier work
cardiac repolarization = conditions: in vivo; cited from earlier work
[4] = of 75 cases adequately followed up

CC(=O)N1CCN(c2ccc(OCC3COC(Cn4ccnc4)(c4ccc(Cl)cc4Cl)O3)cc2)CC1 (racemic) [Ketoconazole, 1-acetyl-4-[4-[[2-(2,4-dichlorophenyl)-2-(1H-imidazole-1-ylmethyl)-1,3-dioxolan-4-yl]methoxy]phenyl]piperazine]
effect of 10% inactivated bovine serum on antifungal activity ([1]; Sabouraud broth containing 10% inactivated bovine serum): enhanced | inhibition of growth ([1]; Sabouraud broth, 14 days of incubation): Complete or marked inhibition of growth | major route of excretion [2]: via the bile into the intestinal tract | metabolism [2]: eventually metabolized to several inactive metabolites | serum concentration [2]: a linear increase in serum concentration | reports of hepatotoxicity (liver; 1981-1984, United Kingdom): 82 reports | time for liver function tests to return to normal after treatment was stopped (average) (liver; average): 3.1 months | hepatocellular injury suggested by serum liver function tests (liver; in vivo): 10 of the 16 | deaths among the cases probably related to treatment (liver; of 16 cases): 3 deaths | cases possibly related to treatment (liver; [4]): 48 cases | cases probably related to treatment (liver; [4]): 16 cases | deaths among the reports of hepatotoxicity (liver; of 82 reports): 5 deaths | APD-50 ([3]; 1.0 μM, N = 2 hearts, baseline 145 ± 5): 149 ± 1 milliseconds | APD-90 ([3]; 1.0 μM, N = 2 hearts, baseline 185 ± 10): 195 ± 5 milliseconds | QT ([3]; 1.0 μM, N = 2 hearts, baseline 230 ± 10): 232 ± 9 milliseconds | APD-50 ([3]; 5.0 μM, N = 3 hearts, baseline 147 ± 5): 163 ± 5 milliseconds | APD-90 ([3]; 5.0 μM, N = 3 hearts, baseline 187 ± 9): 221 ± 8 milliseconds | QT ([3]; 5.0 μM, N = 3 hearts, baseline 233 ± 9): 261 ± 8 milliseconds | APD-50 ([3]; 10.0 μM, N = 3 hearts, baseline 140 ± 8): 173 ± 2 milliseconds | APD-90 ([3]; 10.0 μM, N = 3 hearts, baseline 177 ± 14): 233 ± 9 milliseconds | QT duration and action potential duration (in words) ([3]; isolated guinea pig hearts): increases QT duration and action potential duration | arrhythmogenic effect (in words) ([3]; isolated guinea pig hearts, listed as racemic ketoconazole): may be associated with an increased risk of cardiac arrhythmia; also recorded: indicative of a potential arrhythmogenic effect | gastrointestinal side effects, occurrence in patients (patients): 5-10 % of patients | torsades de pointes (patients): torsades de pointes, has been reported | synthesis of ergosterol (synthesis of ergosterol): impairs the synthesis of ergosterol

CCN(CC)CCNC(=O)c1ccc(NC(C)=O)cc1 [acetyl-procainamide]
block of cellular potassium channel delayed rectifier (Ik) (delayed rectifier (Ik)): block a cellular potassium channel called the delayed rectifier (Ik) | prolongation of cardiac repolarization (cardiac repolarization): cause a prolongation of cardiac repolarization | torsades de pointes (side effect) (cardiac repolarization): well known side effect

C=C[C@H]1C[N@@]2CC[C@H]1C[C@@H]2[C@@H](O)c1ccnc2ccc(OC)cc12 [quinidine]
block of cellular potassium channel delayed rectifier (Ik) (delayed rectifier (Ik)): block a cellular potassium channel called the delayed rectifier (Ik) | prolongation of cardiac repolarization (cardiac repolarization): cause a prolongation of cardiac repolarization | torsades de pointes (side effect) (cardiac repolarization): well known side effect

CC(C)NCC(O)c1ccc(NS(C)(=O)=O)cc1 (stereo not shown) [sotalol]
block of cellular potassium channel delayed rectifier (Ik) (delayed rectifier (Ik)): block a cellular potassium channel called the delayed rectifier (Ik) | prolongation of cardiac repolarization (cardiac repolarization): cause a prolongation of cardiac repolarization | torsades de pointes (side effect) (cardiac repolarization): well known side effect
